Where “and” joins values, the source holds several entries; their conditions need not be identical. Equal entries are not always repeated.
Target: T1, human GPR119 (Homo sapiens, UniProt Q8TDV5)
T1 construct: host or cells: HEK293-CRE beta-lactamase cells
T1 sequence (Q8TDV5 1-335): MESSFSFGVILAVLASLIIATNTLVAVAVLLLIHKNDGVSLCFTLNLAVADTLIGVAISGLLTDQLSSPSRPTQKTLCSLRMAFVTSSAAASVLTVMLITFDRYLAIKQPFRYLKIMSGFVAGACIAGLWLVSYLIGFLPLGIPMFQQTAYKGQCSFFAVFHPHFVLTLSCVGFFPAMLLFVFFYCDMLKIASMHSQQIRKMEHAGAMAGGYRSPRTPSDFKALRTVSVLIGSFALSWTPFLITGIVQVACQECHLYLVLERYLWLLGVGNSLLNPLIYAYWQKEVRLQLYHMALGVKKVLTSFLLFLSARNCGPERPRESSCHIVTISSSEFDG
Experiment: GPR119 radioligand binding assay ([3H]Cmpd A, membranes of HEK 293FT cells over-expressing hGPR119)
Details: competition with 3H-Cmpd A; Ki from IC50 by Cheng-Prusoff; one line per run
Procedure: HEK 293FT cells (Invitrogen, Carlsbad, Calif.) were grown in a shake flask in 293Freestyle medium (Invitrogen) supplemented with 50 microg/mL neomycin and 10 mM HEPES (37 C, 8% carbon dioxide, shaking). The cells were centrifuged gently (approximately 500×g, 10 minutes) and the pellet resuspended in a mixture of Dulbecco's PBS(minus Mg++/−Ca++) supplemented with 18% fetal bovine serum (Sigma Aldrich) and P1 virus such that the multiplicity of infection (MOI) was 10 and the final cell density was 1.3×10^6/ml (total volume 2.5 liters). The cells were transferred to a 5 liter Wave Bioreactor Wavebag (Wave Technologies, MA) and incubated for 4 hours at 27 degrees Celsius (17 rocks/min, 7 degrees platform angle); at the end of the incubation period, an equal volume (2.5 liters) of 293Freestyle medium supplemented with 30 mM sodium butyrate (Sigma Aldrich) was added (final concentration=15 mM), and the cells were grown for 20 hours (37 degrees Celsius, 8% CO2 [0.2 liters/min}, 25 rocks/minute, 7 degrees platform angle). Cells were harvested via centrifugation (3,000×g, 10 minutes), washed once on DPBS (minus Ca++/Mg++), resuspended in 0.25M sucrose, 25 mM HEPES, 0.5 mM EDTA, pH 7.4 and frozen at −80 degrees Celsius.
The frozen cells were thawed on ice and centrifuged at 700×g (1400 rpm) for 10 minutes at 4 degrees Celsius. The cell pellet was resuspended in 20 ml phosphate-buffered saline, and centrifuged at 1400 rpm for 10 minutes. The cell pellet was then resuspended in homogenization buffer (10 mM HEPES (Gibco #15630), pH 7.5, 1 mM EDTA (BioSolutions, #BIO260-15), 1 mM EGTA (Sigma, #E-4378), 0.01 mg/ml benzamidine (Sigma #B 6506), 0.01 mg/ml bacitracin (Sigma #B 0125), 0.005 mg/ml leupeptin (Sigma #L 8511), 0.005 mg/ml aprotinin (Sigma #A 1153)) and incubated on ice for 10 minutes. Cells were then lysed with 15 gentle strokes of a tight-fitting glass Dounce homogenizer. The homogenate was centrifuged at 1000×g (2200 rpm) for 10 minutes at 4 degrees Celsius. The supernatant was transferred into fresh centrifuge tubes on ice. The cell pellet was resuspended in homogenization buffer, and centrifuged again at 1000×g (2200 rpm) for 10 minutes at 4 degrees Celsius after which the supernatant was removed and the pellet resuspended in homogenization buffer. This process was repeated a third time, after which the supernatants were combined, Benzonase (Novagen #71206) and MgCl2 (Fluka #63020) were added to final concentrations of 1 U/ml and 6 mM, respectively, and incubated on ice for one hour. The solution was then centrifuged at 25,000×g (15000 rpm) for 20 minutes at 4 degrees Celsius, the supernatant was discarded, and the pellet was resuspended in fresh homogenization buffer (minus Benzonase and MgCl2). After repeating the 25,000×g centrifugation step, the final membrane pellet was resuspended in homogenization buffer and frozen at −80 degrees Celsius. The protein concentration was determined using the Pierce BCA protein assay kit (Pierce reagents A #23223 and B #23224).
Test compounds were serially diluted in 100% DMSO (J. T. Baker #922401). 2 microL of each dilution was added to appropriate wells of a 96-well plate (each concentration in triplicate). Unlabeled Cmpd A, at a final concentration of 10 microM, was used to determine non-specific binding.
^3H-Cmpd A was diluted in binding buffer (50 mM Tris-HCl, pH 7.5, (Sigma #T7443), 10 mM MgCl2 (Fluka 63020), 1 mM EDTA (BioSolutions #BIO260-15), 0.15% bovine serum albumin (Sigma #A7511), 0.01 mg/mL benzamidine (Sigma #B 6506), 0.01 mg/mL bacitracin (Sigma #B 0125), 0.005 mg/mL leupeptin (Sigma #L 8511), 0.005 mg/mL aprotinin (Sigma #A 1153)) to a concentration of 60 nM, and 100 microL added to all wells of 96-well plate (Nalge Nunc #267245).
Membranes expressing GPR119 were thawed and diluted to a final concentration of 20 μg/100 microL per well in Binding Buffer, and 100 microL of diluted membranes were added to each well of 96-well plate. […]

Ki | SMILES
130 nM | Cc1c(O[C@H]2CCN(C(=O)OC(C)(C)C)C[C@@H]2F)ncnc1N1Cc2cnn(C)c2C1 (racemic) [Example 8, tert-Butyl (3,4-trans)-3-fluoro-4-{[5-methyl-6-(1-methyl-4,6-dihydropyrrolo[3,4-c]pyrazol-5(1H)-yl)pyrimidin-4-yl]oxy}piperidine-1-carboxylate (racemic)]
3.4 nM and 11 nM | Cc1c(O[C@H]2CCN(C(=O)OC3(C)CC3)C[C@H]2F)ncnc1N1Cc2cnn(C)c2C1 (racemic) [Example 7, 1-Methylcyclopropyyl (3,4-cis)-3-fluoro-4-{[5-methyl-6-(1-methyl-4,6-dihydropyrrolo[3,4-c]pyrazol-5(1H)-yl)pyrimidin-4-yl]oxy}piperidine-1-carboxylate (racemic)]
51 nM | Cc1c(O[C@H]2[C@@H]3COC[C@H]2CN(C(=O)OC(C)(C)C)C3)ncnc1N1Cc2cnn(C)c2C1 [Example 9, tert-Butyl (9-anti)-9-{[5-methyl-6-(1-methyl-4,6-dihydropyrrolo[3,4-c]pyrazol-5(1H)-yl)pyrimidin-4-yl]oxy}-3-oxa-7-azabicyclo[3.3.1]nonane-7-carboxylate]

The remaining lines, values behind:

SMILES | Ki
Cc1c(OC2CCN(C(=O)OC(C)C)CC2)ncnc1N1Cc2cnn(C)c2C1 [Example 2, Isopropyyl 4-{[5-methyl-6-(1-methyl-4,6-dihydropyrrolo[3,4-c]pyrazol-5(1H)-yl)pyrimidin-4-yl]oxy}piperidine-1-carboxylate] | 502 nM and 229 nM and 171 nM
Cc1c(O[C@H]2CCN(C(=O)OC(C)(C)C)C[C@H]2F)ncnc1N1Cc2cnn(C)c2C1 (racemic) [Example 6, tert-Butyl (3,4-cis)-3-fluoro-4-{[5-methyl-6-(1-methyl-4,6-dihydropyrrolo[3,4-c]pyrazol-5(1H)-yl)pyrimidin-4-yl]oxy}piperidine-1-carboxylate (racemic)] | 36 nM
CC(C)OC(=O)N1CCC(Oc2ncnc(N3Cc4cnn(C)c4C3)c2C#N)CC1 [Example 3, Isopropyyl 4-{[5-cyano-6-(1-methyl-4,6-dihydropyrrolo[3,4-c]pyrazol-5(1H)-yl)pyrimidin-4-yl]oxy}piperidine-1-carboxylate] | 233 nM

Source: patent US20130072427A1, “GPR 119 MODULATORS” (Pfizer Inc., priority 2009, published 2013)
